The record followed here is patent US9238036B2, “Pharmaceutical uses of lanosta-8,24-dien-3-ols” (priority 2008, dated 2016).

Assay type in all cases: in vivo
The test system of experiment [1] is mice. The experiment can be described thus: Persistent inflammatory nociception induced by CFA, Von Frey filament. The settings on record: FIGS. 4A; for mechanical hypernociception induced by CFA, acute treatment: euphol 30 mg/kg or gabapentin 70 mg/kg oral, 1 h before CFA, 0.6 g Von Frey, 4B. On the procedure:
(§1) In all examples that follow, 20-30 g male mice were kept in filtered-air ventilated cages, with controlled temperature (22±2° C.) and humidity (50-60%), 12 h light/12 h dark cycles, with free access to water and food. The animals remained in the lab for an adaptation period of at least 1 hour before the pharmacological tests, held between 8:00 and 17:00 h.
(§2) The animals' nociceptive mechanical threshold was evaluated as the response frequency of paw withdrawal after ten applications of a Von Frey filament (VHF, Stoelting, Chicago, USA). The animals were individually placed in 9×7×11 cm transparent acrylic compartments over an elevated wire mesh platform, to allow access to the paw plantar surfaces. The Von Frey filament was applied to the right hind paw, watching the criteria of (1) application perpendicular to the plantar surface with enough pressure to bend the filament, so as to ensure total pressure; (2) the animals were evaluated when all four paws were accommodated on the wire mesh; (3) a paw withdrawal response was considered when the animal removed the paw entirely from the wire mesh; (4) each animal was stimulated 10 consecutive times, with 1 second duration each stimulation; (5) each paw withdrawal was considered as 10% of a response, with 10 withdrawals corresponding to 100% response. […]
Animals were treated orally with 30 mg/kg euphol or 70 mg/kg gabapentin (positive control), 1 hour before the CFA injection. The mechanical hypernociception was measured through stimulation with a 0.6 g Von Frey filament in time intervals of 1, 2, 4, 6, 8, 24 and 48 hours after CFA injection, and up to the re-establishment of the nociceptive response. […] For that, animals received daily 30 mg/kg euphol, orally, for 5 days, and hypernociception was evaluated once a day, 4 hours after the first administration. Mechanical hypernociception was evaluated until the return of the painful response. […]

In experiment [2] the test system is mice. The experiment can be described thus: Neuropathic pain induced by partial constriction of the sciatic nerve, Von Frey filament. The settings on record: FIGS. 5A; for mechanical nociceptive response induced by partial constriction of the sciatic nerve, acute treatment: euphol 30 mg/kg or gabapentin 70 mg/kg oral on 4th post-operatory day, 5B; for mechanical hypernociception induced by partial constriction of the sciatic nerve, prolonged treatment: once a day for 5 days from the 6th day, 5C. On the procedure: as §1
The animals' nociceptive mechanical threshold was evaluated as the response frequency of paw withdrawal after ten applications of a Von Frey filament (VHF, Stoelting, Chicago, USA). The animals were individually placed in 9×7×11 cm transparent acrylic compartments over an elevated wire mesh platform, to allow access to the paw plantar surfaces. The Von Frey filament was applied to the right hind paw, watching the criteria of (1) application perpendicular to the plantar surface with enough pressure to bend the filament, so as to ensure total pressure; (2) the animals were evaluated when all four paws were accommodated on the wire mesh; (3) a paw withdrawal response was considered when the animal removed the paw entirely from the wire mesh; (4) each animal was stimulated 10 consecutive times, with 1 second duration each stimulation; (5) each paw withdrawal was considered as 10% of a response, with 10 withdrawals corresponding to 100% response.
The procedure here employed was similar to the one described for rats (Pain, 43:205-218, 1990), modified for mice ((Pain, 76:215-222, 1998), and standardized by Bortolanza et al (Eur J Pharmacol., 453:203-208, 2002). The mice were anesthetized with 7% chloral hydrate (0.6% ml/kg […]). Then the sciatic nerve was exposed on top of the thigh about the sciatic trifurcation, and ⅓-½ of the dorsal portion was tied with a suture filament no. 8. In the false-operated group, the sciatic nerve was exposed without the tying. On the 4th post-operatory day, a group of animals was treated orally with 30 mg/kg euphol, and another group treated orally with 70 mg/kg gabapentin, as a positive control. In predetermined times after the treatment (1, 2, 4, 6, 8, 24 and 48 hours) the mechanical threshold was evaluated, through stimulation with a 0.6 Von Frey filament. To assess the effect of the prolonged treatment, the animals were daily administered euphol, from the 6th day, for 5 days and the mechanical hypernociception was evaluated once a day, 4 h after the first administration, until the return of the nociceptive response similar to the control group. After that, the prolonged treatment protocol was repeated to evaluate a possible development of tolerance to the compound.

A further experiment relates to PKC. The experiment can be described thus: PKC activity on the skin of mice, ELISA. The settings on record: topical, FIG. 2. On the procedure: as §1
This was an evaluation of the effect of the compounds of the invention upon the PKC activity, on the skin of mice. The animals received the following 100 μg/ear compositions: • a positive control, namely TPA (tetradecanoylphorbol-13-acetate), 2.5 μg/ear, in a vehicle comprising a 3:1 mixture of acetone:ethanol. • a negative control, namely the vehicle, which is a 3:1 mixture of acetone:ethanol; • A mixture of 100 μg euphol and 2.5 μg TPA, per ear, in a vehicle comprising a 3:1 mixture of acetone:ethanol.
5-member groups of mice were topically applied, in the inner surface of the ears, the compositions above. The PKC activity, before and after exposure to the tested compositions, was measured using ELISA (enzyme-linked immuno sorbent assay).

A further experiment relates to mice ears. In words: Ear thickness after topical TPA (irritating effect / inflammation), mice ears. Particulars: euphol 100 μg/ear with TPA 2.5 μg/ear, acetone:ethanol 3:1, FIG. 1. On the procedure: as §1
A characterization of the irritating effect of certain chemical compounds was effected, by comparing the results of treating mice ears topically with: • a positive control, namely TPA (tetradecanoylphorbol-13-acetate), 2.5 μg/ear, in a vehicle comprising a 3:1 mixture of acetone:ethanol. • a negative control, namely the vehicle, which is a 3:1 mixture of acetone:ethanol; • Euphol, 100 μg/ear, a compound of the invention, in a vehicle comprising a 3:1 mixture of acetone:ethanol; • A mixture of 100 μg of euphol and 2.5 μg TPA, per ear, in a vehicle comprising a 3:1 mixture of acetone:ethanol.
5-member groups of mice were topically applied, in the inner surface of the ears, the compositions above. The thickness of the ears, before and after exposure to the tested compositions, was measured using a digital micrometer, and the responses were expressed as mμ.

The subject of experiment [3] is mice. The experiment can be described thus: Inflammatory nociception induced by carragenan, Von Frey filament. The settings on record: acute; euphol 30 μg/kg oral 1 h before, dexamethasone 0.5 mg/kg s.c. 4 h before carragenan 300 μg/paw; 0.6 g Von Frey; FIGS. 3A, 3B. On the procedure:
as §1
as §2, with “The animals were individually placed in 9×7×11 cm transparent acrylic compartments over an elevated wire mesh platform, to allow access to the paw plantar surfaces.” left out
The animals were treated orally with euphol (30 μg/kg) one hour before the carragenan injection. […] Hypernociception was evaluated hourly during 8 hours with a 0.6 g Von Frey filament, as well as after 24 and 48 hours after carragenan injection.

On to `NCC1(CC(=O)O)CCCCC1` [gabapentin, reference compound], for which the “mechanical hypernociception induced by CFA, acute treatment” value with mice [1] is “close to the effect obtained with gabapentin”. Also, in the experiment on mice [2], the “mechanical nociceptive response induced by partial constriction of the sciatic nerve, acute treatment” value was “inhibited in a significant manner” and the “mechanical hypernociception induced by partial constriction of the sciatic nerve, prolonged treatment” value was “reduced in a significant manner”.
For `CC(C)=CCC[C@@H](C)[C@@H]1CC[C@]2(C)C3=C(CC[C@@]12C)[C@@]1(C)CC[C@H](O)C(C)(C)[C@@H]1CC3` [euphol], in the experiment with PKC (100 μg euphol + 2.5 μg TPA per ear), the “PKC activity increase induced by TPA (ELISA absorbance)” value is recorded as “significantly reduces the increase in PKC activity induced by TPA”. The “mechanical hypernociception induced by CFA, acute treatment” value with mice [1] is given as “reduced significantly”. Moreover, the “nociceptive response caused by CFA, prolonged treatment” value with mice [1] (once a day for 5 days, euphol 30 mg/kg oral, 4C) is “inhibition of the nociceptive response caused by CFA during the 6 following days of treatment”. The “inhibitory effect on ear thickness increase (inflammation)” value in the experiment on mice ears is reported as “significant even up to 24 hours after the treatment”. In the experiment with mice [2], the “mechanical nociceptive response induced by partial constriction of the sciatic nerve, acute treatment” value is listed as “inhibited in a significant manner” and the “mechanical hypernociception induced by partial constriction of the sciatic nerve, prolonged treatment” value is recorded as “reduced in a significant manner”. Moreover, the “inflammatory mechanical hypernociception induced by carragenan (frequency of response, AUC)” value in the experiment with mice [3] is recorded as “significantly reduced”.
As for `CCCCCCCCCCCCCC(=O)O[C@@H]1[C@@H](C)[C@@]2(O)[C@@H](C=C(CO)C[C@]3(O)C(=O)C(C)=C[C@@H]23)[C@@H]2C(C)(C)[C@]12OC(C)=O` [TPA, tetradecanoylphorbol-13-acetate, reference compound], the “PKC activity (ELISA absorbance) vs vehicle group” value in the experiment on PKC (TPA 2.5 μg/ear) was “significant increase in the PKC activity”.
